*1 amine or outer side, *2 acyl side, *3 side chain or, on linkers, in order; H or OH if unused. Where a SMILES comes first, the peptide text is derived from it. Bridges are numbered along the chain shown (N, C = ends). [ ]: non-standard residue; d: D form. The star is where a group is joined. X2 = NC(=O)CN1CCN(CC(=O)O)CCN(CC(=O)NCCOCCOCCC(=O)NCCSCc2cc(C[*:1])cc(C[*:2])c2)CCN(CC(=O)O)CC1; X1 = NC(=O)CN1CCN(CC(=O)O)CCN(CC(=O)*)CCN(CC(=O)O)CC1; NOTA = O=C(O)CN1CCN(CC(=O)O)CCN(CC(=O)*)CC1; 1Nal = N[C@@H](Cc1cccc2ccccc12)C(=O)O; oXylylene = c1ccc(C[*:2])c(C[*:1])c1; Bta = N[C@@H](Cc1csc2ccccc12)C(=O)O; pXylylene = c1cc(C[*:2])ccc1C[*:1]; 3Pal = N[C@@H](Cc1cccnc1)C(=O)O; PEG4 = NCCOCCOCCOCCOCCC(=O)O; 12Ado = NCCCCCCCCCCCC(=O)O; PEG3 = NCCOCCOCCOCCC(=O)O; PEG2 = NCCOCCOCCC(=O)O; Butyryl = CCCC(=O)*; PEG1 = NCCOCCC(=O)O; Ahx = NCCCCCC(=O)O
target: T1, Human Fibroblast Activation Protein (FAP) (Homo sapiens, UniProt Q12884); assay: Enzyme inhibition assay against human FAP (substrate Z-GP-AMC), Example 1; type: biochemical; details: human FAP 5 ng/well, 50 μM Z-GP-AMC; Ki from IC50 by Cheng-Prusoff
T1 sequence (Q12884 1-760): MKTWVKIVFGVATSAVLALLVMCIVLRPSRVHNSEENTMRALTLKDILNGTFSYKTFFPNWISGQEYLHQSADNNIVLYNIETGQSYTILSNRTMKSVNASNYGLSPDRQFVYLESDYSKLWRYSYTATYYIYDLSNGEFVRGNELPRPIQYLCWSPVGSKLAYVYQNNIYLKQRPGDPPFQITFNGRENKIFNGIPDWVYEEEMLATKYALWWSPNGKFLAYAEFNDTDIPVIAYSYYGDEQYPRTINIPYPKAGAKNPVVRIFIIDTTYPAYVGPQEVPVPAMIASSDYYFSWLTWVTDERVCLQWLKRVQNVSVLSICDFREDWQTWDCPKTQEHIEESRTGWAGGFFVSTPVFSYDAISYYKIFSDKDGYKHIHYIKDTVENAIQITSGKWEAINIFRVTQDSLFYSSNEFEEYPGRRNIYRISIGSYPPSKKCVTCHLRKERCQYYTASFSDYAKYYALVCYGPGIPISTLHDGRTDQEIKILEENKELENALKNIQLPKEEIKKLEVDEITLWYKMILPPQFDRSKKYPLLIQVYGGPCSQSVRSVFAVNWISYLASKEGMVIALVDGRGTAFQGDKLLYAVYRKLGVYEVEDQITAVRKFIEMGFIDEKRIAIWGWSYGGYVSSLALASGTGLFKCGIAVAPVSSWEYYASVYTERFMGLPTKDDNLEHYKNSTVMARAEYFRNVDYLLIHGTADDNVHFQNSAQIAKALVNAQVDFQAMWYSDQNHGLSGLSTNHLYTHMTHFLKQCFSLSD
Procedure: Binding Affinity Against Human Fibroblast Activation Protein (FAP)
An enzyme inhibition assay was performed to determine IC50 values and then the Cheng-Prusoff equation used to calculate the Ki given a known Km of the substrate Z-GP-AMC for FAP. To perform the assay, FAP (5 ng/well) and the test peptide at varying concentrations (i.e. 10^−6 to 10^−12) were incubated in a black 96-well plate for 10 minutes at RT on a shaker plate. Then, the substrate Z-GP-AMC was added to give a final concentration of 50 μM. The total reaction volume per well was 100 μL The reaction was allowed to incubate at RT on a shaker plate for 1 hour protected from light, and then fluorescence read with a BioTek Synergy LX plate reader at an ex/em (360/40 and 460/40). Experiments were performed in at least duplicate, and controls of buffer only, buffer and FAP enzyme, and buffer with substrate and FAP enzyme only were included for comparison. The buffer used for the assay was 50 mM Tris-HCl, 1M NaCl, and 1 mg/mL BSA, pH=7.5. Data was plotted in GraphPad Prism and non-linear regression used to calculate IC50 values. The compounds tested and Ki values of each were as follows: […]

Ki [nM]	Compound
0.71	CCCC(=O)N[C@H]1CSCc2cc(CSCCNC(=O)CCOCCOCCNC(=O)CN3CCN(CC(=O)O)CCN(CC(N)=O)CCN(CC(=O)O)CC3)cc(c2)CSC[C@@H](C(N)=O)NC(=O)[C@H](Cc2c[nH]c3ccccc23)NC(=O)[C@H](Cc2c[nH]c3ccccc23)NC(=O)[C@H](CCC(N)=O)NC(=O)[C@H](CCC(=O)O)NC(=O)[C@H](Cc2c[nH]c3ccccc23)NC(=O)[C@@H]2CCCN2C(=O)[C@H]([C@@H](C)O)NC1=O [VMT-FAP-2-57, But-[C(mXtB(CA-PEG2-PSC))TPWEQWWC]-NH2] (Butyryl-CTPWEQWWC-NH2; linker 1-9 via X2)
0.48	C[C@@H](O)[C@@H]1NC(=O)[C@@H](NC(=O)[C@H](CO)NC(=O)CCOCCOCCNC(=O)CN2CCN(CC(=O)O)CCN(CC(N)=O)CCN(CC(=O)O)CC2)CSCc2ccccc2CSC[C@@H](C(N)=O)NC(=O)[C@H](Cc2c[nH]c3ccccc23)NC(=O)[C@H](Cc2c[nH]c3ccccc23)NC(=O)[C@H](CCC(N)=O)NC(=O)[C@H](CCC(=O)O)NC(=O)[C@H](Cc2cccc3ccccc23)NC(=O)[C@@H]2CCCN2C1=O [VMT-FAP-2-60, PSC-PEG2-S-[C(oXdB)TP1-NalEQWWC]-NH2] ({X1-PEG2}-SCTP[1Nal]EQWWC-NH2; linker 2-10 via oXylylene)
0.3	C[C@@H](O)[C@@H]1NC(=O)[C@@H](NC(=O)[C@H](CO)NC(=O)CCOCCOCCNC(=O)CN2CCN(CC(=O)O)CCN(CC(N)=O)CCN(CC(=O)O)CC2)CSCc2ccccc2CSC[C@@H](C(N)=O)NC(=O)[C@H](Cc2c[nH]c3ccccc23)NC(=O)[C@H](Cc2c[nH]c3ccccc23)NC(=O)[C@H](CCC(N)=O)NC(=O)[C@H](CCC(=O)O)NC(=O)[C@H](Cc2csc3ccccc23)NC(=O)[C@@H]2CCCN2C1=O [VMT-FAP-2-61, PCS-PEG2-S-[C(oXdB)TPBtaEQWWC]-NH2] ({X1-PEG2}-SCTP[Bta]EQWWC-NH2; linker 2-10 via oXylylene)
0.61	C[C@@H](O)[C@@H]1NC(=O)[C@@H](NC(=O)[C@H](CO)NC(=O)CCOCCOCCNC(=O)CN2CCN(CC(=O)O)CCN(CC(N)=O)CCN(CC(=O)O)CC2)CSCc2ccccc2CSC[C@@H](C(N)=O)NC(=O)[C@H](Cc2c[nH]c3ccccc23)NC(=O)[C@H](Cc2c[nH]c3ccccc23)NC(=O)[C@H](CCC(N)=O)NC(=O)[C@H](CCC(=O)O)NC(=O)[C@H](Cc2cccnc2)NC(=O)[C@@H]2CCCN2C1=O [VMT-FAP-2-62, PCS-PEG2-S-[C(oXdB)TP3-PalEQWWC]-NH2] ({X1-PEG2}-SCTP[3Pal]EQWWC-NH2; linker 2-10 via oXylylene)
0.08	C[C@@H](O)[C@@H]1NC(=O)[C@@H](NC(=O)CCOCCNC(=O)CN2CCN(CC(=O)O)CCN(CC(N)=O)CCN(CC(=O)O)CC2)CSCc2ccccc2CSC[C@@H](C(N)=O)NC(=O)[C@H](Cc2c[nH]c3ccccc23)NC(=O)[C@H](Cc2c[nH]c3ccccc23)NC(=O)[C@H](CCC(N)=O)NC(=O)[C@H](CCC(=O)O)NC(=O)[C@H](Cc2c[nH]c3ccccc23)NC(=O)[C@@H]2CCCN2C1=O [VMT-FAP-2-67, PSC-PEG1-[C(oXdB)TPWEQWWC]-NH2] ({X1-PEG1}-CTPWEQWWC-NH2; linker 1-9 via oXylylene)
0.64	C[C@@H](O)[C@@H]1NC(=O)[C@@H](NC(=O)CCOCCOCCOCCNC(=O)CN2CCN(CC(=O)O)CCN(CC(N)=O)CCN(CC(=O)O)CC2)CSCc2ccccc2CSC[C@@H](C(N)=O)NC(=O)[C@H](Cc2c[nH]c3ccccc23)NC(=O)[C@H](Cc2c[nH]c3ccccc23)NC(=O)[C@H](CCC(N)=O)NC(=O)[C@H](CCC(=O)O)NC(=O)[C@H](Cc2c[nH]c3ccccc23)NC(=O)[C@@H]2CCCN2C1=O [VMT-FAP-2-68, PSC-PEG3-[C(oXdB)TPWEQWWC]-NH2] ({X1-PEG3}-CTPWEQWWC-NH2; linker 1-9 via oXylylene)
0.01	C[C@@H](O)[C@@H]1NC(=O)[C@@H](NC(=O)CCOCCOCCOCCOCCNC(=O)CN2CCN(CC(=O)O)CCN(CC(N)=O)CCN(CC(=O)O)CC2)CSCc2ccccc2CSC[C@@H](C(N)=O)NC(=O)[C@H](Cc2c[nH]c3ccccc23)NC(=O)[C@H](Cc2c[nH]c3ccccc23)NC(=O)[C@H](CCC(N)=O)NC(=O)[C@H](CCC(=O)O)NC(=O)[C@H](Cc2c[nH]c3ccccc23)NC(=O)[C@@H]2CCCN2C1=O [VMT-FAP-2-69, PSC-PEG4-[C(oXdB)TPWEQWWC]-NH2] ({X1-PEG4}-CTPWEQWWC-NH2; linker 1-9 via oXylylene)
0.64	C[C@@H](O)[C@@H]1NC(=O)[C@@H](NC(=O)CCCCCNC(=O)CN2CCN(CC(=O)O)CCN(CC(N)=O)CCN(CC(=O)O)CC2)CSCc2ccccc2CSC[C@@H](C(N)=O)NC(=O)[C@H](Cc2c[nH]c3ccccc23)NC(=O)[C@H](Cc2c[nH]c3ccccc23)NC(=O)[C@H](CCC(N)=O)NC(=O)[C@H](CCC(=O)O)NC(=O)[C@H](Cc2c[nH]c3ccccc23)NC(=O)[C@@H]2CCCN2C1=O [VMT-FAP-2-70, PSC-6AHA-[C(oXdB)TPWEQWWC]-NH2] ({X1-Ahx}-CTPWEQWWC-NH2; linker 1-9 via oXylylene)
6.66	C[C@@H](O)[C@@H]1NC(=O)[C@@H](NC(=O)CCCCCCCCCCCNC(=O)CN2CCN(CC(=O)O)CCN(CC(N)=O)CCN(CC(=O)O)CC2)CSCc2ccccc2CSC[C@@H](C(N)=O)NC(=O)[C@H](Cc2c[nH]c3ccccc23)NC(=O)[C@H](Cc2c[nH]c3ccccc23)NC(=O)[C@H](CCC(N)=O)NC(=O)[C@H](CCC(=O)O)NC(=O)[C@H](Cc2c[nH]c3ccccc23)NC(=O)[C@@H]2CCCN2C1=O [VMT-FAP-2-74, PSC-12-Ado-[C(oXdB)TPWEQWWC]-NH2] ({X1-12Ado}-CTPWEQWWC-NH2; linker 1-9 via oXylylene)
1.26	C[C@@H](O)[C@@H]1NC(=O)[C@@H](NC(=O)CCCCCNC(=O)CN2CCN(CC(=O)O)CCN(CC(N)=O)CCN(CC(=O)O)CC2)CSCc2ccccc2CSC[C@@H](C(=O)O)NC(=O)[C@H](Cc2c[nH]c3ccccc23)NC(=O)[C@H](Cc2c[nH]c3ccccc23)NC(=O)[C@H](CCC(N)=O)NC(=O)[C@H](CCC(=O)O)NC(=O)[C@H](Cc2c[nH]c3ccccc23)NC(=O)[C@@H]2CCCN2C1=O [VMT-FAP-2-75, PSC-6AHA-[C(oXdB)TPWEQWWC]-COOH] ({X1-Ahx}-CTPWEQWWC-OH; linker 1-9 via oXylylene)
31.4	C[C@@H](O)[C@@H]1NC(=O)[C@@H](NC(=O)CCOCCOCCNC(=O)CN2CCN(CC(=O)O)CCN(CC(N)=O)CCN(CC(=O)O)CC2)CSCc2ccccc2CSC[C@@H](C(=O)O)NC(=O)[C@H](Cc2c[nH]c3ccccc23)NC(=O)[C@H](Cc2c[nH]c3ccccc23)NC(=O)[C@H](CCC(N)=O)NC(=O)[C@H](CCC(=O)O)NC(=O)[C@H](Cc2c[nH]c3ccccc23)NC(=O)[C@@H]2CCCN2C1=O [VMT-FAP-2-76, PSC-PEG2-[C(oXdB)TPWEQWWC]-COOH] ({X1-PEG2}-CTPWEQWWC-OH; linker 1-9 via oXylylene)
0.01	C[C@@H](O)[C@@H]1NC(=O)[C@@H](NC(=O)CCOCCOCCNC(=O)CN2CCN(CC(=O)O)CCN(CC(=O)O)CC2)CSCc2ccccc2CSC[C@@H](C(N)=O)NC(=O)[C@H](Cc2c[nH]c3ccccc23)NC(=O)[C@H](Cc2c[nH]c3ccccc23)NC(=O)[C@H](CCC(N)=O)NC(=O)[C@H](CCC(=O)O)NC(=O)[C@H](Cc2c[nH]c3ccccc23)NC(=O)[C@@H]2CCCN2C1=O [VMT-FAP-2-78, NOTA-PEG2-[C(oXdB)TPWEQWWC]-NH2] ({NOTA-PEG2}-CTPWEQWWC-NH2; linker 1-9 via oXylylene)
2.68	C[C@@H](O)[C@@H]1NC(=O)[C@@H](NC(=O)CCOCCOCCNC(=O)CN2CCN(CC(=O)O)CCN(CC(N)=O)CCN(CC(=O)O)CC2)CSCc2ccc(cc2)CSC[C@@H](C(N)=O)NC(=O)[C@H](Cc2c[nH]c3ccccc23)NC(=O)[C@H](Cc2c[nH]c3ccccc23)NC(=O)[C@H](CCC(N)=O)NC(=O)[C@H](CCC(=O)O)NC(=O)[C@H](Cc2c[nH]c3ccccc23)NC(=O)[C@@H]2CCCN2C1=O [VMT-FAP-2-82, PSC-PEG2-[C(pXdB)TPWEQWWC]-NH2] ({X1-PEG2}-CTPWEQWWC-NH2; linker 1-9 via pXylylene)
